In PubChem BioAssay AID1963865 (Molecular Pharmacology Branch, DTP, NCI, 2024):

System: KRAS PDC multicell spheroid viability
Assay: Anticancer human tumor 825966-067-R-J1-PDC patient-derived colon carcinoma cell line growth inhibition [KRAS2]
Settings: for IC50: curve of first compound; for viability, T/C: stronger effect = lower value
Outline: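 KRAS-mutant tumor cells were grown as spheroids with HUVEC endothelial cells and human MSCs as stroma. Targeted agents were tested alone and with KRAS pathway inhibitors. Doses started at or near clinical Cmax, or 10 microM, descending half-log.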

[1] = second compound 0.1 µM, first compound 0.00316 µM
[2] = second compound 0.1 µM, first compound 0.01 µM
[3] = second compound 0.1 µM, first compound 0.0316 µM
[4] = second compound 0.1 µM, first compound 0.1 µM
[5] = second compound 0.316 µM, first compound 0.00316 µM
[6] = second compound 0.316 µM, first compound 0.01 µM
[7] = second compound 0.316 µM, first compound 0.0316 µM
[8] = second compound 0.316 µM, first compound 0.1 µM
[9] = second compound 1 µM, first compound 0.00316 µM
[10] = second compound 1 µM, first compound 0.01 µM
[11] = second compound 1 µM, first compound 0.0316 µM
[12] = second compound 1 µM, first compound 0.1 µM
[13] = second compound 3.16 µM, first compound 0.00316 µM
[14] = second compound 3.16 µM, first compound 0.01 µM
[15] = second compound 3.16 µM, first compound 0.0316 µM
[16] = second compound 3.16 µM, first compound 0.1 µM
[17] = second compound 10 µM, first compound 0.00316 µM
[18] = second compound 10 µM, first compound 0.01 µM
[19] = second compound 10 µM, first compound 0.0316 µM
[20] = second compound 10 µM, first compound 0.1 µM
[21] = second compound 0.1 µM, first compound 0.316 µM
[22] = second compound 0.1 µM, first compound 1 µM
[23] = second compound 0.1 µM, first compound 3.16 µM
[24] = second compound 0.1 µM, first compound 10 µM
[25] = second compound 0.316 µM, first compound 0.316 µM
[26] = second compound 0.316 µM, first compound 1 µM
[27] = second compound 0.316 µM, first compound 3.16 µM
[28] = second compound 0.316 µM, first compound 10 µM
[29] = second compound 1 µM, first compound 0.316 µM
[30] = second compound 1 µM, first compound 1 µM
[31] = second compound 1 µM, first compound 3.16 µM
[32] = second compound 1 µM, first compound 10 µM
[33] = second compound 3.16 µM, first compound 0.316 µM
[34] = second compound 3.16 µM, first compound 1 µM
[35] = second compound 3.16 µM, first compound 3.16 µM
[36] = second compound 3.16 µM, first compound 10 µM
[37] = second compound 10 µM, first compound 0.316 µM
[38] = second compound 10 µM, first compound 1 µM
[39] = second compound 10 µM, first compound 3.16 µM
[40] = second compound 10 µM, first compound 10 µM
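Also: spheroids exposed to compounds for 7 days.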
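For viability, T/C in this document: 100% = DMSO vehicle control viability.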

Row | Structure (SMILES) | IC50 (second compound 0.1 µM) [µM] | IC50 (second compound 0.316 µM) [µM] | IC50 (second compound 1 µM) [µM] | IC50 (second compound 3.16 µM) [µM] | IC50 (second compound 10 µM) [µM] | viability, T/C [3] [%] | viability, T/C [4] [%] | viability, T/C [7] [%] | viability, T/C [8] [%] | viability, T/C [11] [%] | viability, T/C [12] [%] | viability, T/C [15] [%] | viability, T/C [16] [%] | viability, T/C [19] [%] | viability, T/C [20] [%] | viability, T/C [21] [%] | viability, T/C [22] [%] | viability, T/C [25] [%] | viability, T/C [26] [%] | viability, T/C [29] [%] | further results
1 | CN(C)C/C=C/C(=O)Nc1cc2c(Nc3ccc(F)c(Cl)c3)ncnc2cc1O[C@H]1CCOC1 + COc1cc2nc(C)nc(NC(C)c3cc(N)cc(C(F)(F)F)c3)c2cc1OC1CCOC1 | > 0.1 | > 0.1 | > 0.1 | > 0.1 | > 0.1 | 96.1 | 91.8 | 105 | 103 | 99.2 | 83.5 | 106 | 105 | 105 | 95.2 |  |  |  |  |  | viability, T/C (second compound 0.1 µM, first compound 0.000316 µM): 94%; viability, T/C (second compound 0.1 µM, first compound 0.001 µM): 96.7%; viability, T/C [1]: 82.9%; viability, T/C [2]: 101%; viability, T/C (second compound 0.316 µM, first compound 0.000316 µM): 103%; viability, T/C (second compound 0.316 µM, first compound 0.001 µM): 107%; viability, T/C [5]: 95.9%; viability, T/C [6]: 98.9%; viability, T/C (second compound 1 µM, first compound 0.000316 µM): 92.2%; viability, T/C (second compound 1 µM, first compound 0.001 µM): 96%; viability, T/C [9]: 105%; viability, T/C [10]: 97.2%; viability, T/C (second compound 3.16 µM, first compound 0.000316 µM): 133%; viability, T/C (second compound 3.16 µM, first compound 0.001 µM): 119%; viability, T/C [13]: 107%; viability, T/C [14]: 115%; viability, T/C (second compound 10 µM, first compound 0.000316 µM): 108%; viability, T/C (second compound 10 µM, first compound 0.001 µM): 103%; viability, T/C [17]: 116%; viability, T/C [18]: 106%
2 | COC(=O)c1ccc2c(C(=Nc3ccc(N(C)C(=O)CN4CCN(C)CC4)cc3)c3ccccc3)c(O)[nH]c2c1 + CNCc1ccccc1-c1csc(C(C)Nc2nc(C)nc3cc(OC)c(OC)cc23)c1 | 0.567 | 1.18 | 0.91 | < 0.0316 | < 0.0316 | 84.2 | 82.4 | 62 | 86.3 | 75.7 | 78.2 | 23 | 38.6 | 2.62 | 0.25 | 77.7 | 23.2 | 97.5 | 58.4 | 87 | viability, T/C [23]: 0.18%; viability, T/C [24]: 0.19%; viability, T/C [27]: 0.13%; viability, T/C [28]: 0.2%; viability, T/C [30]: 47.3%; viability, T/C [31]: 0.9%; viability, T/C [32]: 0.21%; viability, T/C [33]: 0.57%; viability, T/C [34]: 0.22%; viability, T/C [35]: 0.13%; viability, T/C [36]: 0.21%; viability, T/C [37]: 1.09%; viability, T/C [38]: 0.18%; viability, T/C [39]: 0.17%; viability, T/C [40]: 0.26%
3 | O=C(c1cc(Cc2n[nH]c(=O)c3ccccc23)ccc1F)N1CCN(C(=O)C2CC2)CC1 + CC1OCC2(CCN(c3cnc(Sc4ccnc(N)c4Cl)c(N)n3)CC2)C1N | > 10 | > 10 | > 10 | > 10 | 0.985 | 78.2 | 67.3 | 79.2 | 76.2 | 77.8 | 91.5 | 105 | 109 | 104 | 89.2 | 82 | 71.1 | 92.6 | 67.6 | 75.7 | viability, T/C [23]: 80.6%; viability, T/C [24]: 81.4%; viability, T/C [27]: 85%; viability, T/C [28]: 86.6%; viability, T/C [30]: 68%; viability, T/C [31]: 62.5%; viability, T/C [32]: 82.2%; viability, T/C [33]: 95.1%; viability, T/C [34]: 102%; viability, T/C [35]: 102%; viability, T/C [36]: 78.1%; viability, T/C [37]: 77.5%; viability, T/C [38]: 54.9%; viability, T/C [39]: 17.4%; viability, T/C [40]: 17.6%
4 | COc1cc(Nc2ncc3c(n2)-c2ccc(Cl)cc2C(c2c(F)cccc2OC)=NC3)ccc1C(=O)O + COc1cc2nc(C)nc(NC(C)c3cc(N)cc(C(F)(F)F)c3)c2cc1OC1CCOC1 | > 10 | > 10 | > 10 | > 10 | < 0.0316 | 124 | 93.5 | 105 | 123 | 87 | 155 | 52 | 127 | 3.07 | 1.62 | 144 | 171 | 144 | 140 | 156 | viability, T/C [23]: 136%; viability, T/C [24]: 130%; viability, T/C [27]: 133%; viability, T/C [28]: 145%; viability, T/C [30]: 137%; viability, T/C [31]: 145%; viability, T/C [32]: 118%; viability, T/C [33]: 81.3%; viability, T/C [34]: 110%; viability, T/C [35]: 69.3%; viability, T/C [36]: 112%; viability, T/C [37]: 0.85%; viability, T/C [38]: 2.07%; viability, T/C [39]: 7.95%; viability, T/C [40]: 1.44%
5 | COc1cc2nccc(Oc3ccc(NC(=O)C4(C(=O)Nc5ccc(F)cc5)CC4)cc3)c2cc1OC + COc1cc2nc(C)nc(NC(C)c3cc(N)cc(C(F)(F)F)c3)c2cc1OC1CCOC1 | 1.56 | 1.46 | 1.63 | 0.675 | < 0.0316 | 80.9 | 87.8 | 96.2 | 81.1 | 77.1 | 98.6 | 82.3 | 80.6 | 21 | 3.18 | 83.9 | 75.1 | 77.5 | 71.4 | 78.5 | viability, T/C [23]: 9.68%; viability, T/C [24]: 7.53%; viability, T/C [27]: 6.75%; viability, T/C [28]: 4.21%; viability, T/C [30]: 83.5%; viability, T/C [31]: 4.2%; viability, T/C [32]: 5.34%; viability, T/C [33]: 91.9%; viability, T/C [34]: 31.9%; viability, T/C [35]: 2.11%; viability, T/C [36]: 0.21%; viability, T/C [37]: 1.6%; viability, T/C [38]: 1.58%; viability, T/C [39]: 0.32%; viability, T/C [40]: 0.7%
6 | CCN1CCN(Cc2ccc(Nc3ncc(F)c(-c4cc(F)c5nc(C)n(C(C)C)c5c4)n3)nc2)CC1 + CNCc1ccccc1-c1csc(C(C)Nc2nc(C)nc3cc(OC)c(OC)cc23)c1 | > 1 | > 1 | 0.705 | 0.068 | < 0.00316 | 126 | 137 | 115 | 129 | 154 | 173 | 88.5 | 30.9 | 0.22 | 0.18 | 174 | 123 | 176 | 78 | 147 | viability, T/C [1]: 98.2%; viability, T/C [2]: 99.1%; viability, T/C [5]: 101%; viability, T/C [6]: 128%; viability, T/C [9]: 111%; viability, T/C [10]: 122%; viability, T/C [30]: 10.1%; viability, T/C [13]: 110%; viability, T/C [14]: 127%; viability, T/C [33]: 0.29%; viability, T/C [34]: 0.27%; viability, T/C [17]: 0.26%; viability, T/C [18]: 0.29%; viability, T/C [37]: 0.15%; viability, T/C [38]: 0.22%
